In the supplement of paper PMC10307832:

Assays:
Test in all cases: relative viability (nuclei count vs DMSO), 5 days (fraction); higher = more cells survive
KN-93 + Trametinib = compound: CN(C/C=C/C1=CC=C(C=C1)Cl)CC2=CC=CC=C2N(CCO)S(=O)(=O)C3=CC=C(C=C3)OC [KN-93] + CC(=O)Nc1cccc(-n2c(=O)n(C3CC3)c(=O)c3c(Nc4ccc(I)cc4F)n(C)c(=O)c(C)c32)c1 [Trametinib] (partner 0.02 µM)
Procedure, shortened: (§1)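 Cells from lung cancer lines were seeded into 1536-well plates and, one day later, dosed by pin tool. Treatments were either a single drug or a fixed dose of an anchor drug with five library-drug doses (not always all listed) in √10 steps. After 5 days, nuclei were stained in a one-step fixation (final 0.05% Triton X-100, 1% formaldehyde, 1 ug/ml Hoechst) and counted on 4× images, and relative viability is the treated-to-vehicle nuclei ratio, as the median of duplicate plates.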

KN-93 + Palbociclib = compound: CN(C/C=C/C1=CC=C(C=C1)Cl)CC2=CC=CC=C2N(CCO)S(=O)(=O)C3=CC=C(C=C3)OC [KN-93] + CC(=O)c1c(C)c2cnc(Nc3ccc(N4CCNCC4)cn3)nc2n(C2CCCC2)c1=O [Palbociclib] (partner 0.5 µM)
Procedure, shortened: as §1

KN-93 + Luminespib = compound: CN(C/C=C/C1=CC=C(C=C1)Cl)CC2=CC=CC=C2N(CCO)S(=O)(=O)C3=CC=C(C=C3)OC [KN-93] + CCNC(=O)c1noc(-c2cc(C(C)C)c(O)cc2O)c1-c1ccc(CN2CCOCC2)cc1 [Luminespib] (partner 0.01 µM)
Procedure, shortened: as §1

KN-93 + Lapatinib = compound: CN(C/C=C/C1=CC=C(C=C1)Cl)CC2=CC=CC=C2N(CCO)S(=O)(=O)C3=CC=C(C=C3)OC [KN-93] + CS(=O)(=O)CCNCc1ccc(-c2ccc3ncnc(Nc4ccc(OCc5cccc(F)c5)c(Cl)c4)c3c2)o1 [Lapatinib] (partner 2 µM)
Procedure, shortened: as §1

KN-93 + Pictilisib = compound: CN(C/C=C/C1=CC=C(C=C1)Cl)CC2=CC=CC=C2N(CCO)S(=O)(=O)C3=CC=C(C=C3)OC [KN-93] + CS(=O)(=O)N1CCN(Cc2cc3nc(-c4cccc5[nH]ncc45)nc(N4CCOCC4)c3s2)CC1 [Pictilisib] (partner 1 µM)
Procedure, shortened: as §1

Row | Cell Line | relative viability (KN-93 + Trametinib; first compound 0.08 µM) | relative viability (KN-93 + Trametinib; first compound 0.253 µM) | relative viability (KN-93 + Trametinib; first compound 2.53 µM) | relative viability (KN-93 + Trametinib; first compound 8 µM) | relative viability (KN-93 + Palbociclib; first compound 0.08 µM) | relative viability (KN-93 + Palbociclib; first compound 0.253 µM) | relative viability (KN-93 + Palbociclib; first compound 2.53 µM) | relative viability (KN-93 + Palbociclib; first compound 8 µM) | relative viability (KN-93 + Luminespib; first compound 0.08 µM) | relative viability (KN-93 + Luminespib; first compound 0.253 µM) | relative viability (KN-93 + Luminespib; first compound 2.53 µM) | relative viability (KN-93 + Luminespib; first compound 8 µM) | relative viability (KN-93 + Lapatinib; first compound 0.08 µM) | relative viability (KN-93 + Lapatinib; first compound 0.253 µM) | relative viability (KN-93 + Lapatinib; first compound 2.53 µM) | relative viability (KN-93 + Lapatinib; first compound 8 µM) | relative viability (KN-93 + Pictilisib; first compound 0.08 µM) | relative viability (KN-93 + Pictilisib; first compound 0.253 µM) | relative viability (KN-93 + Pictilisib; first compound 2.53 µM) | relative viability (KN-93 + Pictilisib; first compound 8 µM)
1 | 201T | 0.714 | 0.754 | 0.711 | 0.599 | 0.359 | 0.376 | 0.367 | 0.306 | 1.04 | 1.16 | 0.958 | 0.697 | 1.1 | 0.955 | 1.03 | 0.988 | 0.756 | 0.583 | 0.672 | 0.63
2 | A549 |  |  |  |  |  |  |  |  |  |  |  |  | 0.863 | 0.937 | 1.01 | 0.385 |  | 0.609 | 1 | 0.225
3 | A-427 | 0.799 | 0.746 | 0.772 | 0.438 | 0.555 | 0.533 | 0.511 | 0.41 | 1.16 | 1.2 | 0.866 | 0.307 | 1.21 | 1.28 | 1.05 | 0.878 | 0.732 | 0.69 | 0.635 | 0.512
4 | ABC-1 |  |  |  |  | 0.691 | 0.64 | 0.571 | 0.336 | 0.701 | 0.752 | 0.368 | 0.271 | 0.92 | 1.64 | 1.18 | 1.05 | 0.638 | 0.721 | 0.738 | 0.264
5 | BEN | 1.08 | 1.19 | 1.18 | 0.67 | 0.482 | 0.448 | 0.523 | 0.465 | 0.322 | 0.331 | 0.619 | 0.214 |  | 0.968 | 0.918 | 0.362 |  | 0.549 | 0.618 | 0.381
6 | CAL-12T | 0.345 | 0.35 | 0.289 | 0.28 | 0.37 | 0.52 | 0.232 | 0.3 | 0.208 | 0.27 | 0.573 | 0.336 | 0.616 | 0.574 | 0.716 | 0.496 | 0.498 | 0.367 | 0.605 | 0.326
7 | COR-L23 | 0.554 | 0.625 | 0.722 | 0.395 | 0.272 | 0.289 | 0.303 | 0.24 | 0.604 | 1 | 0.978 | 0.424 | 0.846 | 1.47 | 0.901 | 0.508 | 0.796 | 0.892 | 0.997 | 0.414
8 | COR-L 105 | 0.452 | 0.41 | 0.437 | 0.399 | 0.456 | 0.412 | 0.391 | 0.333 | 0.765 | 0.869 | 0.675 | 0.739 | 0.451 | 0.318 | 0.318 | 0.367 | 0.413 | 0.354 | 0.388 | 0.29
9 | ChaGo-K-1 | 0.906 | 1.03 | 0.79 | 0.785 | 0.899 | 1.02 | 0.946 | 0.829 | 0.589 | 0.712 | 0.699 | 0.462 |  |  |  |  | 1.27 | 0.851 | 0.718 | 0.454
10 | EKVX | 0.359 | 0.285 | 0.341 | 0.279 | 0.433 | 0.34 | 0.365 | 0.265 | 0.998 | 0.977 | 0.895 | 0.714 | 0.209 | 0.133 | 0.194 | 0.153 | 0.396 | 0.329 | 0.437 | 0.39
11 | EMC-BAC-2 | 0.912 | 0.826 | 0.945 | 0.714 | 0.564 | 0.53 | 0.537 | 0.46 | 1.07 | 1.27 | 1.18 | 0.901 | 0.852 | 0.956 | 0.943 | 0.625 | 0.477 | 0.608 | 0.542 | 0.433
12 | EPLC-272H | 0.289 | 0.279 | 0.283 | 0.23 | 0.321 | 0.279 | 0.354 | 0.346 | 0.438 | 0.183 | 0.266 | 0.173 | 0.925 | 1.03 | 0.981 | 0.774 | 0.338 | 0.365 | 0.294 | 0.276
13 | H3255 | 0.643 | 0.59 | 0.671 | 0.417 | 0.322 | 0.303 | 0.3 | 0.266 | 0.85 | 0.97 | 0.774 | 0.776 | 0.266 | 0.241 | 0.259 | 0.224 | 0.422 | 0.527 | 0.492 | 0.391
14 | HARA | 0.632 | 0.549 | 0.434 | 0.461 | 0.29 | 0.261 | 0.229 | 0.195 | 0.659 | 1.15 | 0.449 | 0.284 | 0.693 | 0.737 | 0.811 | 0.625 | 0.366 | 0.36 | 0.3 | 0.2
15 | HCC-15 | 0.359 | 0.367 | 0.348 | 0.306 | 0.671 | 0.82 | 0.735 | 0.513 | 0.297 | 0.319 | 0.504 | 0.279 | 0.625 | 1.01 | 1.02 | 0.685 | 0.547 | 0.866 | 0.861 | 0.524
16 | HCC-44 | 1.14 | 0.954 | 1.04 | 0.83 | 1.04 | 0.878 | 0.979 | 0.79 | 1.28 | 1.01 | 1.12 | 0.752 | 0.946 | 0.945 | 1.28 | 0.81 | 0.728 | 0.569 | 0.503 | 0.398
17 | HCC-78 | 0.708 | 0.68 | 0.808 | 0.711 | 0.47 | 0.513 | 0.446 | 0.427 |  |  |  |  | 0.881 | 0.703 | 1.02 | 0.21 | 0.251 | 0.185 | 0.193 | 0.182
